Laboratory results as given in patent US20160046592A1, “PHARMACEUTICAL COMPOSITION FOR THE TREATMENT OF DIABETES” (Ajinomoto Co., Inc., priority 2013, published 2016).

target: T1, human GYS1 (glycogen synthase) (Homo sapiens, UniProt P13807); experiment: Measurement of glycogen synthase activity; type: biochemical; details: concentration causing 50% increase in relative activity; 100% = compound of Example 1 of WO/2011/058154 at 10 μM; 10 mM Glucose-6-phosphate; 37° C. for 25 minutes (Examples 1 to 61 and 67 to 82) or 20 minutes (Examples 62 to 66); absorbance at 340 nm
T1 construct: made in house; host or cells: HEK293T
T1 sequence (P13807 1-737): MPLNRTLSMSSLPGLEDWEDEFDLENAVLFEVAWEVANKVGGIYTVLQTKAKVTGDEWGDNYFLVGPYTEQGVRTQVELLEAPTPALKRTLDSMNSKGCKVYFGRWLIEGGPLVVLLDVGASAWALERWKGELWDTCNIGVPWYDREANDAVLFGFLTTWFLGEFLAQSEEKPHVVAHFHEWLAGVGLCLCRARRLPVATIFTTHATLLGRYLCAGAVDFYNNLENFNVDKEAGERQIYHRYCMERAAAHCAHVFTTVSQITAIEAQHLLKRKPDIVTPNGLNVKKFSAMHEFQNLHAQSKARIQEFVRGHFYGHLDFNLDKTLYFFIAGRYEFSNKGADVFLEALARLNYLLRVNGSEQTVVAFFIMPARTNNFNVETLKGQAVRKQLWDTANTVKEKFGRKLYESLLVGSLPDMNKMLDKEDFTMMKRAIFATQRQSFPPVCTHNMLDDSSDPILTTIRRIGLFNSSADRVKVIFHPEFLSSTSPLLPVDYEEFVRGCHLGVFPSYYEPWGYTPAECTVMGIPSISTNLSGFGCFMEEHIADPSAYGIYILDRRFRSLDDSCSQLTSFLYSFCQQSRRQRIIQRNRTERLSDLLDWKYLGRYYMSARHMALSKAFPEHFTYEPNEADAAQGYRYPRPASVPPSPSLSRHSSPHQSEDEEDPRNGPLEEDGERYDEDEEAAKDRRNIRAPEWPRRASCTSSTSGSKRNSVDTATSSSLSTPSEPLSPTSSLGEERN
How it was run: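 Human GYS1 from transfected HEK293T cells (re-dissolved 16000×g pellet) was reacted at 37 °C for 25 or 20 min in glycylglycine pH 7.3 with glucose-6-phosphate, glycogen and UDP-glucose. PK/LDH-coupled NADH read-out at 340 nm; EC50 from activity relative to a reference activator at 10 μM final (100%).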

SMILES	EC50 [nM]
CNS(=O)(=O)CCN(CC(=O)O)C(=O)c1cccc(COc2ccc(-c3cc(F)c(F)cc3SC)cc2)c1 [Example 56, 2-[[3-[[4-(4,5-Difluoro-2-methylsulfanyl-phenyl)phenoxy]methyl]benzoyl]-[2-(methylsulfamoyl)ethyl]amino]acetic Acid]	< 3
CSc1cc(F)c(F)cc1-c1ccc(OCc2cccc(C(=O)N(CCS(=O)(=O)N(C)C)CC(=O)O)c2)cc1 [Example 59, 2-[[3-[[4-(4,5-Difluoro-2-methylsulfanyl-phenyl)phenoxy]methyl]benzoyl]-[2-(dimethylsulfamoyl)ethyl]amino]acetic Acid]	16
CSc1cc(F)c(F)cc1-c1ccc(OCc2cccc(C(=O)N(CCc3noc(C)n3)CC(=O)O)c2)cc1 [Example 60, 2-[[3-[[4-(4,5-Difluoro-2-methylsulfanyl-phenyl)phenoxy]methyl]benzoyl]-[2-(5-methyl-1,2,4-oxadiazol-3-yl)ethyl]amino]acetic Acid]	11
CSc1cc(F)c(F)cc1-c1ccc(OCc2cccc(C(=O)N3C[C@H](C(N)=O)C[C@H]3C(=O)O)c2)cc1 [Example 61, (2S,4R)-4-Carbamoyl-1-[3-[[4-(4,5-difluoro-2-methylsulfanyl-phenyl)phenoxy]methyl]benzoyl]pyrrolidine-2-carboxylic Acid]	19
CSc1cc(F)c(F)cc1-c1ccc(OCc2cccc(C(=O)N3[C@@H](CO)CC[C@H]3C(=O)O)c2)cc1 [Example 64, (2S,5R)-1-[3-[[4-(4,5-Difluoro-2-methylsulfanyl-phenyl)phenoxy]methyl]benzoyl]-5-(hydroxymethyl)pyrrolidine-2-carboxylic Acid]	22
COC[C@H]1CC[C@@H](C(=O)O)N1C(=O)c1cccc(COc2ccc(-c3cc(F)c(F)cc3SC)cc2)c1 [Example 65, (2S,5R)-1-[3-[[4-(4,5-Difluoro-2-methylsulfanyl-phenyl)phenoxy]methyl]benzoyl]-5-(methoxymethyl)pyrrolidine-2-carboxylic Acid]	18
CSc1cc(F)c(F)cc1-c1ccc(OCc2cccc(C(=O)N(CC(=O)O)Cc3ccon3)c2)cc1 [Example 66, 2-[[3-[[4-(4,5-Difluoro-2-methylsulfanyl-phenyl)phenoxy]methyl]benzoyl]-(isoxazol-3-ylmethyl)amino]acetic Acid]	15
CSc1cc(F)c(F)cc1-c1ccc(OCc2cccc(C(=O)N(CC(=O)O)Cc3coc(C)n3)c2)cc1 [Example 67, 2-[[3-[[4-(4,5-Difluoro-2-methylsulfanyl-phenyl)phenoxy]methyl]benzoyl]-[(2-methyloxazol-4-yl)methyl]amino]acetic Acid]	13
CSc1cc(F)c(F)cc1-c1ccc(OCc2cccc(C(=O)N(CC(=O)O)Cc3nc(C)no3)c2)cc1 [Example 68, 2-[[3-[[4-(4,5-Difluoro-2-methylsulfanyl-phenyl)phenoxy]methyl]benzoyl]-[(3-methyl-1,2,4-oxadiazol-5-yl)methyl]amino]acetic Acid]	< 3
CSc1cc(F)c(F)cc1-c1ccc(OCc2cccc(C(=O)N(CC(=O)O)Cc3noc(C)n3)c2)cc1 [Example 69, 2-[[3-[[4-(4,5-Difluoro-2-methylsulfanyl-phenyl)phenoxy]methyl]benzoyl]-[(5-methyl-1,2,4-oxadiazol-3-yl)methyl]amino]acetic Acid]	20
CSc1cc(F)c(F)cc1-c1ccc(OCc2cccc(C(=O)N(CCn3cncn3)CC(=O)O)c2)cc1 [Example 70, 2-[[3-[[4-(4,5-Difluoro-2-methylsulfanyl-phenyl)phenoxy]methyl]benzoyl]-[2-(1,2,4-triazol-1-yl)ethyl]amino]acetic Acid]	21
CSc1cc(F)c(F)cc1-c1ccc(OCc2cccc(C(=O)N(CC(=O)O)Cc3cscn3)c2)cc1 [Example 71, 2-[[3-[[4-(4,5-Difluoro-2-methylsulfanyl-phenyl)phenoxy]methyl]benzoyl]-(thiazol-4-ylmethyl)amino]acetic Acid]	17
CSc1cc(F)c(F)cc1-c1ccc(OCc2cccc(C(=O)N3C(CC#N)CC[C@H]3C(=O)O)c2)cc1 (stereo partly drawn) [Example 72, (2S)-5-(Cyanomethyl)-1-[3-[[4-(4,5-difluoro-2-methylsulfanyl-phenyl)phenoxy]methyl]benzoyl]pyrrolidine-2-carboxylic Acid]	11
CSc1cc(F)c(F)cc1-c1ccc(OCc2cccc(C(=O)N(CC(=O)O)Cc3nnc(C)o3)c2)cc1 [Example 73, 2-[[3-[[4-(4,5-Difluoro-2-methylsulfanyl-phenyl)phenoxy]methyl]benzoyl]-[(5-methyl-1,3,4-oxadiazol-2-yl)methyl]amino]acetic Acid]	15
CSc1cc(F)c(F)cc1-c1ccc(OCc2cccc(C(=O)N(CC(=O)O)Cc3cn(C)cn3)c2)cc1 [Example 74, 2-[[3-[[4-(4,5-Difluoro-2-methylsulfanyl-phenyl)phenoxy]methyl]benzoyl]-[(1-methylimidazol-4-yl)methyl]amino]acetic Acid]	8

Continued, values first:

EC50 [nM]	SMILES
22	N#CCCN(CC(=O)O)C(=O)c1cccc(COc2ccc(-c3cc(F)c(F)c4ccoc34)cc2)c1 [Example 75, 2-[2-Cyanoethyl-[3-[[4-(4,5-difluorobenzofuran-7-yl)phenoxy]methyl]benzoyl]amino]acetic Acid]
20	CS(=O)(=O)CCCN(CC(=O)O)C(=O)c1cccc(COc2ccc(-c3cc(F)c(F)c4ccoc34)cc2)c1 [Example 77, 2-[[3-[[4-(4,5-Difluorobenzofuran-7-yl)phenoxy]methyl]benzoyl]-(3-methylsulfonylpropyl)amino]acetic Acid]
20	CO[C@H]1CCN(C(=O)c2cccc(COc3ccc(-c4cc(F)c(F)c5ccoc45)cc3)c2)[C@@H]1C(=O)O [Example 78, (2S,3S)-1-[3-[[4-(4,5-Difluorobenzofuran-7-yl)phenoxy]methyl]benzoyl]-3-methoxy-pyrrolidine-2-carboxylic Acid]
22	NC(=O)CCN(CC(=O)O)C(=O)c1cccc(COc2ccc(-c3cc(F)c(F)c4ccoc34)cc2)c1 [Example 79, 2-[(3-Amino-3-oxo-propyl)-[3-[[4-(4,5-difluorobenzofuran-7-yl)phenoxy]methyl]benzoyl]amino]acetic Acid]
24	COC[C@H](C)N(CC(=O)O)C(=O)c1cccc(COc2ccc(-c3cc(F)c(F)c4ccoc34)cc2)c1 [Example 80, 2-[[3-[[4-(4,5-Difluorobenzofuran-7-yl)phenoxy]methyl]benzoyl]-[(1S)-2-methoxy-1-methyl-ethyl]amino]acetic Acid]
20	CC(=O)N1CCC(CN(CC(=O)O)C(=O)c2cccc(COc3ccc(-c4cc(F)c(F)c5ccoc45)cc3)c2)CC1 [Example 81, 2-[(1-Acetyl-4-piperidyl)methyl-[3-[[4-(4,5-difluorobenzofuran-7-yl)phenoxy]methyl]benzoyl]amino]acetic Acid]
19	O=C(O)CN(C(=O)c1cccc(COc2ccc(-c3cc(F)c(F)c4ccoc34)cc2)c1)C1CCNC1=O (stereo not shown) [Example 82, 2-[[3-[[4-(4,5-Difluorobenzofuran-7-yl)phenoxy]methyl]benzoyl]-(2-oxopyrrolidin-3-yl)amino]acetic Acid]
